Test results from patent US20260102499A1, “COMPOSITIONS WITH REDUCED N[…]” (INVENTIA HEALTHCARE LIMITED, priority 2022, published 2026).
Values joined by “and” are separate entries in the source; they are usually repeats but may differ in a detail not shown here. Equal entries are not always repeated.

Legend:
[1] = per day, as published by Health Canada; cited from earlier work
[2] = Acceptable intake / acceptable level of nitrosamine impurities (Health Canada); conditions: based on a maximum daily dose of 2 mg for varenicline
Description: International regulators such as United States Food and Drug Administration (USFDA), European Medicine Agency (EMA), and Health Canada have published recommendations with respect to ‘acceptable intake’ of nitrosamine impurities. ‘Acceptable intake’ (per day) of nitrosamine impurities varies with the impurity structure, molecular weight, and its toxicity potential. Table 1 illustrates the per day ‘acceptable intake’ of some nitrosamine impurities, as published by Health Canada.
‘Acceptable intake’ of a nitrosamine impurity, when applied to the maximum daily dose of a drug, provides ‘acceptable levels’ of the said nitrosamine impurity in pharmaceutical compositions containing the said drug. ‘Acceptable levels’ of a nitrosamine impurity are expressed in parts per million (ppm) or parts per billion (ppb), of the drug (by weight). For example, for varenicline (which contains amine), the ‘acceptable intake’ of the N-nitroso-varenicline (NNV) (nitrosamine impurity of the NDSRI type) is 37 ng/day, and the ‘acceptable level’ of NNV is 18.5 ppm based on a maximum daily dose of 2 mg for varenicline.

| Structure (SMILES) | Acceptable Intake (AI) Levels [1] | acceptable level of NNV [2] [ppm] |
| --- | --- | --- |
| CN(CCc1ccccc1)N=O [N-methyl-N-nitroso-phenethylamine] | 8.0 ng/day | – |
| O=NN1CC2CC(C1)c1cc3nccnc3cc12 [N-nitroso-varenicline (NNV), N-nitroso-varenicline] | 37 ng/day and 37.0 ng/day | 18.5 |
| CN1CCN(N=O)CC1 [1-methyl-4-nitrosopiperazine (MNP), 1-methyl-4-nitrosopiperazine] | 96.0 ng/day | – |
| O=NN1CCCCC1 [N-nitroso-piperidine] | 1300.0 ng/day | – |
| CCN(CC)N=O [N-nitroso-diethylamine (NDEA), N-nitroso-diethylamine] | 26.5 ng/day | – |
| CN(CC[C@H](Oc1cccc2ccccc12)c1cccs1)N=O [N-nitroso-duloxetine (NDLX), N-nitroso-duloxetine] | 100.0 ng/day | – |
| CC(C)N(N=O)C(C)C [N-nitroso-diisopropylamine (NDIPA), N-nitroso-diisopropylamine] | 26.5 ng/day | – |
| CCN(N=O)C(C)C [N-nitroso-ethylisopropylamine (NEIPA), N-nitroso-ethylisopropylamine] | 26.5 ng/day | – |
| CN(C)N=O [N-nitroso-dimethylamine (NDMA), N-nitroso-dimethylamine] | 96.0 ng/day | – |
| CN(CCC=C1c2ccccc2CCc2ccccc21)N=O [N-nitroso-nortriptyline (NNORT), N-nitroso-nortriptyline] | 8.0 ng/day | – |
| CN(CCCC(=O)O)N=O [N-nitroso-4-(methylamino)butyric acid] | 96.0 ng/day | – |
| O=NN1CC=CCC1 [N-nitroso-1,2,3,6-tetrahydropyridine] | 37.0 ng/day | – |
| COC(=O)C(c1ccccc1)C1CCCCN1N=O (stereo not shown) [N-nitroso-methylphenidate] | 1300.0 ng/day | – |
| CCCCN(CCCC)N=O [N-nitroso-dibutylamine (NDBA), N-nitroso-dibutylamine] | 26.5 ng/day | – |
| C#CCN(N=O)[C@@H]1CCc2ccccc21 [N-nitroso-rasagiline] | 18.0 ng/day | – |
| O=NN1CCOCC1 [N-nitrosomorpholine (NMOR), N-nitrosomorpholine] | 127.0 ng/day | – |
| CCCN(CCC)N=O [N-nitroso-dipropylamine (NDPA), N-nitroso-dipropylamine] | 26.5 ng/day | – |
| O=NN1CCn2c(nnc2C(F)(F)F)C1 [7-Nitroso-3-(trifluoromethyl)-5,6,7,8-tetrahydro[1,2,4]triazolo-[4,3-a]pyrazine] | 37.0 ng/day | – |
